Assay results taken from PubChem BioAssay (NCI).
“And” between values parts separate entries of the source, which are not always exact repeats. Identical values can stand only once.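 The compound was tested at five concentrations on cells cultured in 96-well plates, with a 48-hour exposure period. The concentration for 50% growth inhibition is given as GI50. TGI marks complete inhibition of growth.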

Columns and labels:
Experiment in all cases: NCI-60 cell line screen, 48 h
786-0 renal = tested on: 786-0 renal
A498 renal = tested on: A498 renal
A549 NSCLC = tested on: A549 NSCLC
ACHN renal = tested on: ACHN renal
BT-549 breast = tested on: BT-549 breast
CAKI-1 renal = tested on: CAKI-1 renal
CCRF-CEM leukemia = tested on: CCRF-CEM leukemia
COLO 205 colon = tested on: COLO 205 colon
DU-145 prostate = tested on: DU-145 prostate
EKVX NSCLC = tested on: EKVX NSCLC
HCC-2998 colon = tested on: HCC-2998 colon
HCT-116 colon = tested on: HCT-116 colon
HCT-15 colon = tested on: HCT-15 colon
HL-60(TB) leukemia = tested on: HL-60(TB) leukemia
HOP-62 NSCLC = tested on: HOP-62 NSCLC
HOP-92 NSCLC = tested on: HOP-92 NSCLC
HS 578T breast = tested on: HS 578T breast
HT29 colon = tested on: HT29 colon
IGROV1 ovarian = tested on: IGROV1 ovarian
K-562 leukemia = tested on: K-562 leukemia
KM12 colon = tested on: KM12 colon
LOX IMVI melanoma = tested on: LOX IMVI melanoma
M14 melanoma = tested on: M14 melanoma
MALME-3M melanoma = tested on: MALME-3M melanoma
MCF7 breast = tested on: MCF7 breast
MDA-MB-231 breast = tested on: MDA-MB-231 breast
MDA-MB-435 = tested on: MDA-MB-435
MOLT-4 leukemia = tested on: MOLT-4 leukemia
NCI-H226 lung = tested on: NCI-H226 lung

For `C[C@@]1(C(=O)Nc2ccc(F)nc2)CCCN1c1nc(Nc2cc(C3CC3)[nH]n2)c2cccn2n1`, the GI50 (786-0 renal) was 855 nM and 2780 nM, the TGI (786-0 renal) was > 4290 nM and 17700 nM and the GI50 (A498 renal) was 194 nM and 927 nM. For the same compound, the TGI (A498 renal) was 896 nM and 3990 nM, the GI50 (A549 NSCLC) was 259 nM and 384 nM and the TGI (A549 NSCLC) was > 10000 nM and 22900 nM. For the same compound, the GI50 (ACHN renal) was 849 nM and 3360 nM, the TGI (ACHN renal) was > 3470 nM and 26100 nM and the GI50 (BT-549 breast) was 832 nM and 3060 nM. For the same compound, the TGI (BT-549 breast) was > 2460 nM and 14200 nM, the GI50 (CAKI-1 renal) was 565 nM and 725 nM and the TGI (CAKI-1 renal) was > 2290 nM and 7000 nM. The GI50 (CCRF-CEM leukemia) was 378 nM and 574 nM, the TGI (CCRF-CEM leukemia) was > 100000 nM and the GI50 (COLO 205 colon) was 9.29 nM and 50.1 nM. For the same compound, the TGI (COLO 205 colon) was 236 nM and 321 nM, the GI50 (DU-145 prostate) was 1030 nM and 2570 nM and the TGI (DU-145 prostate) was > 4000 nM and 16400 nM. For the same compound, the GI50 (EKVX NSCLC) was 417 nM and 1210 nM, the TGI (EKVX NSCLC) was > 4230 nM and 17100 nM and the GI50 (HCC-2998 colon) was 1060 nM and 6270 nM. The TGI (HCC-2998 colon) was > 4700 nM and 22700 nM, the GI50 (HCT-116 colon) was 314 nM and 575 nM and the TGI (HCT-116 colon) was > 2330 nM and 15900 nM. For the same compound, the GI50 (HCT-15 colon) was 826 nM and 2120 nM, the TGI (HCT-15 colon) was > 4910 nM and 36100 nM and the GI50 (HL-60(TB) leukemia) was 9.05 nM. The TGI (HL-60(TB) leukemia) was > 2060 nM, the GI50 (HOP-62 NSCLC) was 404 nM and 1710 nM and the TGI (HOP-62 NSCLC) was > 5170 nM and 15400 nM. The GI50 (HOP-92 NSCLC) was 11.9 nM and < 10 nM, the TGI (HOP-92 NSCLC) was 672 nM and 200 nM and the GI50 (HS 578T breast) was 631 nM and 2560 nM. The TGI (HS 578T breast) was 3190 nM and 8610 nM, the GI50 (HT29 colon) was 4.43 nM and 10.3 nM and the TGI (HT29 colon) was > 10000 nM and 1840 nM. For the same compound, the GI50 (IGROV1 ovarian) was 514 nM and 1710 nM, the TGI (IGROV1 ovarian) was > 3870 nM and 16500 nM and the TGI (K-562 leukemia) was > 10000 nM and 56600 nM. The GI50 (KM12 colon) was 53.3 nM and 125 nM, the TGI (KM12 colon) was 467 nM and 817 nM and the GI50 (LOX IMVI melanoma) was 346 nM and 1100 nM. For the same compound, the TGI (LOX IMVI melanoma) was > 2040 nM and 12200 nM, the GI50 (M14 melanoma) was 624 nM and 2500 nM and the TGI (M14 melanoma) was > 2850 nM and 20500 nM. For the same compound, the GI50 (MALME-3M melanoma) was 11700 nM, the TGI (MALME-3M melanoma) was > 4480 nM and 29400 nM and the GI50 (MCF7 breast) was 44.5 nM and 30.5 nM. The TGI (MCF7 breast) was > 2690 nM and 15200 nM, the GI50 (MDA-MB-231 breast) was 786 nM and 3110 nM and the TGI (MDA-MB-231 breast) was > 10000 nM and 15100 nM. For the same compound, the TGI (MDA-MB-435) was > 5420 nM and 23600 nM, the GI50 (MOLT-4 leukemia) was 7880 nM and the TGI (MOLT-4 leukemia) was > 3390 nM and 58700 nM. The GI50 (NCI-H226 lung) was 248 nM and 651 nM and the TGI (NCI-H226 lung) was 1900 nM and 7910 nM.
